In EP0076669A1, “Novel 3-phenyl-1-indanamines, pharmaceutical compositions and methods of preparation” (KEFALAS A/S, priority 1981, dated 1983):
Where a name gives a salt, the structure may show the parent alone.

Tests used:
[1] = target: T1, ^3H-DA uptake in striatal synaptosomes (Rattus norvegicus, UniProt P23977); assay: biochemical; assay type: biochemical, Rats; details: rat striatal synaptosomes, 3H-DA 12.5 nM; read-out: Uptake Inhibition IC50 DA
T1 construct: the two corpura striata are dissected out and gently homogenized; from tissue; host or cells: rat corpus striatum, synaptosomal P2 fraction
Method: ^3H-DA uptake in striatal synaptosomes in vitro.
0.32 M sucrose containing 1 mM Nialamide
Krebs-Ringer-phosphate buffer, pH 7.4
3,4-dihydroxyphenylethylamine [ethyl-1-^3H(N)] = ^3H-DA, spc. act. app. 15 Ci/mmol, New England Nuclear
Thomas Tissue Grinder, clearance 0.004-0.006 inch.
Rats are killed by a blow to their head, exsanguinated and their brains removed. The brain is placed on a precooled glassplate, and the two corpura striata are dissected out and gently homogenized in 40 volumes of ice cold 0.32 M sucrose containing 1 mM of nialamide using a hand homogenizer with teflon pestle. The P2-fraction (synaptosomal fraction) is obtained by centrifugation (600 g, 10 min., 25000 g, 55 min. 4 °C) and suspended in 40 volumes of a modified Krebs-Ringer-phosphate buffer, pH 7.4. To 200µl of the synaptosomal fraction on ice are added 3700 µl modified Krebs-Ringer-phosphate buffer - containing test compounds. After a preincubation at 37°C for 5 min. […] The incubation is terminated by filtering the samples under vacuum through Millipore filters with a wash of 5 ml buffer containing 10 µM of unlabelled DA. After solubilizing the filters in 1 ml of cellosolve the radioactivity is determined by liquid scintillation counting after the addition of 10 ml of Insta-Gel. The unspecific binding of ^3H-DA is determined by incubating control samples on ice instead of at 37 °C.
All experiments are performed in ttriplicate.
The mean of all control samples and ice samples are calculated.

[2] = test system: tetrabenazine induced ptosis; assay: Tetrabenazine ptosis antagonism; assay type: in vivo; details: Mus musculus, ip, 0.5 h; i.p., mice; tetrabenazine 40 mg/kg i.p. 30 min after test substance
Method: For insoluble substances the doses 0, 1/8, 1/32 and 1/128 of "i.^p. LD50" are used. 3 mice are used for each dose level. Thirty minutes after administration of test substance, tetrabenazine, 40 mg/kg, is injected i.p. Ptosis is evaluated 30 minutes after administration of tetrabenazine, the following rating scale being used: 0 = normal eyes, 1=1/4 closed eyes, 2 = 1/2 closed eyes, 3 = 3/4 closed eyes and 4 = completely closed eyes. Ptosis is evaluated 30 seconds after tilting the cage 3 times. The tilting is carried out in such a way that the animals slide along the floor of the cage.
The results are recorded as % inhibition of ptotic score calculated on the basis of the score of the control group. If ptotic score for the control group is < 10 the test is rejected and another is performed. The registration can also be done as an on line procedure.

potentiation of 5-HTP = assay: 5-HTP potentiation (5-HTP syndrome); assay type: in vivo; details: Mus musculus, ip, 0.5 h; i.p., mice; 5-HTP 100 mg/kg i.v. 30 min after test substance; read-out: 5-HTP potentation,ED50
Method: The test substance is given i.p. or p.o. in the doses 10, 10, 2.5, 0.63 and 0 mg/kg. Three mice are used for each dose level. One of the groups on the highest dose is used as control of the compounds own effect. […] Thirty minutes after administration of test substance, 5-HTP, 100 mg/kg i.v. is given (injection time 5-10 sec.). After this 5-HTP dose the animals remain unaffected. If the animals have been pretreated with a substance, which inhibits the re-uptake of 5-HT, a 5-HTP syndrome will occur. This is characterized by the following symptoms: 1) excitation, 2) tremor, and 3) abduction of the hind limbs.
After the administration of 5-HTP the animals are observed for 15 minutes and each animal is given one point for each symptom present. Thus, the maximal score for a group consisting of 3 mice is 9.
The results are stated as fractions: 0/9, 1/9, 2/9 ..... 8/9, 9/9, where 0, 1, 2 ..... 8, 9 are the number of points per group after the dose in question.

T1 sequence (P23977 whole entry): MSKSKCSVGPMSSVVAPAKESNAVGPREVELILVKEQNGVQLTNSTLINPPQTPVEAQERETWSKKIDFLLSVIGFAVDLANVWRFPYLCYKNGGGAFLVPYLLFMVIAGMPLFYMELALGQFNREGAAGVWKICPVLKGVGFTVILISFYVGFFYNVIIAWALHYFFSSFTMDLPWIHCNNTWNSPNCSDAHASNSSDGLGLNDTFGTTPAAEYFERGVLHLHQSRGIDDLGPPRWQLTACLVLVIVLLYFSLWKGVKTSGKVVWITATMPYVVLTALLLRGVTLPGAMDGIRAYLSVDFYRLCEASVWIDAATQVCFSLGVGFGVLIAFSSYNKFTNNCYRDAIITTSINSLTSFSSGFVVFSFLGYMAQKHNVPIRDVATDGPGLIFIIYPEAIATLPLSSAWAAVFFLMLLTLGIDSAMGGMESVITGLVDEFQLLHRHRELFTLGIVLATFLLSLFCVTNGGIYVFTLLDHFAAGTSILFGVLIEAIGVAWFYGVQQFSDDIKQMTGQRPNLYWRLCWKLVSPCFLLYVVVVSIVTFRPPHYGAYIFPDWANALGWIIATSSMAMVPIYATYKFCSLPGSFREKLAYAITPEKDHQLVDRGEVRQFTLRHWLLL

Row | Structure (SMILES) | IC50 [1] [nM] | ED50 [2] [µmol/kg] | ED50 (potentiation of 5-HTP) [µmol/kg]
1 | CCN(CC)[C@@H]1C[C@@H](c2ccc(F)cc2)c2ccc(C)cc21 (relative stereo) [Lu 18-200-c] | 210 | 63 | –
2 | Clc1ccc([C@@H]2C[C@@H](NCC=Cc3ccccc3)c3ccccc32)cc1Cl (relative stereo) [Lu 19-083-o] | – | > 83 | > 83
3 | CN[C@@H]1C[C@@H](c2ccc(F)c(Cl)c2)c2ccccc21 (relative stereo) [Lu 19-085-c, trans-N-methyl-3-(3'-chloro-4'-fluorophenyl)-I-indanamine hydrochloride] | – | 51 | 47
4 | CN[C@@H]1C[C@@H](c2ccc(F)cc2)c2ccc(C)cc21 (relative stereo) [Lu 19-092-c] | – | 34 | 63
5 | CN[C@@H]1C[C@H](c2ccccc2)c2ccccc21 (relative stereo) [Lu 19-094] | – | > 154 | 211
6 | CN(C)[C@@H]1C[C@@H](c2ccc(F)c(F)c2)c2ccccc21 (relative stereo) [Lu 19-095-c] | – | 7.1 | 73
7 | CN[C@@H]1C[C@@H](c2ccc(Cl)cc2Cl)c2ccccc21 (relative stereo) [Lu 19-099-c] | – | 19 | 67
8 | CN(C)[C@@H]1C[C@@H](c2ccc(F)c(Cl)c2)c2ccccc21 (relative stereo) [Lu 19-100-c, trans N,N-dimethyl-3-(3-chloro-4-fluorophenyi)-1-indanamine] | – | 4 | 37
9 | CN(C)[C@@H]1C[C@H](c2ccc(F)c(Cl)c2)c2ccccc21 (relative stereo) [Lu 19-101-c, cis-N,N-dimethyl-3-(3-chloro-4-fluorophenyl)-1-indanamine, hydrochloride] | – | 24 | 51
10 | CN[C@@H]1C[C@@H](c2ccc(Br)cc2)c2ccccc21 (relative stereo) [Lu 19-102-c] | – | 4 | 8.8
11 | CN[C@@H]1C[C@H](c2ccc(Br)cc2)c2ccccc21 (relative stereo) [Lu 19-103-c] | – | 29 | 6.6
12 | CN[C@@H]1C[C@H](c2ccc(F)c(F)c2)c2ccccc21 (relative stereo) [Lu 19-104-c, cis-N-methyl-3-(3,4-difluorophenyl)-1-indanamine] | – | 23 | 63
13 | CCN(C)[C@@H]1C[C@@H](c2ccc(F)c(Cl)c2)c2ccccc21 (relative stereo) [Lu 19-105-o, trans N-ethyl-N-methyl-N-3-(3'-chloro-4'-fluorophenyl)-indanamine] | – | 12 | 95
14 | CN[C@@H]1C[C@H](c2ccc(F)cc2)c2ccccc21 (relative stereo) [Lu 19-108-c, cis N-methyl-3-(4'-fluorophenyl)-1-indanamine, hydrochloride] | – | 79 | 72
15 | CN[C@@H]1C[C@@H](c2ccc(F)cc2)c2ccccc21 (relative stereo) [Lu 19-109-c] | – | 6.3 | > 36
16 | CN[C@@H]1C[C@H](c2cccc(Cl)c2)c2ccccc21 (relative stereo) [Lu 19-110-c] | – | 142 | 124
17 | CN[C@@H]1C[C@@H](c2cccc(Cl)c2)c2ccccc21 (relative stereo) [Lu 19-111-c] | – | 45 | 92
18 | CN[C@@H]1C[C@H](c2ccc(Cl)cc2Cl)c2ccccc21 (relative stereo) [Lu 19-113-c] | – | 98 | 71
19 | CN(C)[C@@H]1C[C@@H](c2cccc(Cl)c2)c2ccccc21 (relative stereo) [Lu 19-115-c] | – | 10 | 43
20 | CN(C)[C@@H]1C[C@H](c2cccc(Cl)c2)c2ccccc21 (relative stereo) [Lu 19-116-c] | – | 85 | 78
21 | CN[C@@H]1C[C@@H](c2ccc(Cl)cc2)c2ccccc21 (relative stereo) [Lu 19-119] | – | > 155 | 34
22 | CN[C@@H]1C[C@H](c2ccc(Cl)cc2)c2ccccc21 (relative stereo) [Lu 19-120-c] | – | > 34 | 23

Row | Structure (SMILES) | IC50 [1] [nM] | ED50 [2] [µmol/kg] | ED50 (potentiation of 5-HTP) [µmol/kg]
23 | CN(C)[C@@H]1C[C@@H](c2ccc(Cl)cc2)c2ccccc21 (relative stereo) [Lu 19-121] | – | 66 | 18
24 | CN(C)[C@@H]1C[C@H](c2ccc(Cl)cc2)c2ccccc21 (relative stereo) [Lu 19-124] | – | 43 | 109
25 | CN[C@@H]1C[C@@H](c2ccc(Cl)c(Cl)c2)c2ccc(F)cc21 (relative stereo) [Lu 19-136-c] | – | 33 | 27
26 | CN[C@@H]1C[C@H](c2ccc(Cl)c(Cl)c2)c2ccc(F)cc21 (relative stereo) [Lu 19-137-c] | – | 15 | 34
27 | CN(C)[C@@H]1C[C@@H](c2ccc(Cl)c(Cl)c2)c2ccc(F)cc21 (relative stereo) [Lu 19-143-c] | – | > 111 | 14
28 | CN(C)[C@@H]1C[C@H](c2ccc(Cl)c(Cl)c2)c2ccc(F)cc21 (relative stereo) [Lu 19-144-c] | – | > 111 | 29
29 | CN[C@@H]1C[C@@H](c2ccc(Cl)c(Cl)c2)c2ccc(OC)cc21 (relative stereo) [Lu 20-015-o] | – | 7 | 14
30 | CN[C@@H]1C[C@H](c2ccc(Cl)c(Cl)c2)c2ccc(OC)cc21 (relative stereo) [Lu 20-016-o] | – | 14 | 3
31 | CN[C@@H]1C[C@H](c2ccc(Cl)c(Cl)c2)c2ccc(O)cc21 (relative stereo) [Lu 20-030] | – | 15 | 59
32 | CN(C)[C@@H]1C[C@@H](c2ccc(Cl)c(Cl)c2)c2ccc(O)cc21 (relative stereo) [Lu 20-031-b, trans N,N-dimethyl-3-(3,4-dichlorophenyl)-6-hydroxy-1-indanamine, hydrobromide] | – | 97 | 18
33 | COc1ccc2c(c1)[C@H](N(C)C)C[C@H]2c1ccc(Cl)c(Cl)c1 (relative stereo) [Lu 20-049-o] | – | 5.9 | 37
34 | CN(C)CCCC1(c2ccc(F)cc2)OCc2cc(C#N)ccc21 (stereo not shown) [Citalo-pram, reference compound] | – | 20 | 3.3
35 | CNC1CC(c2ccc(F)cc2)c2ccc(F)cc21 (stereo not shown) [Lu 13-164-o] | – | 22 | 57
36 | Clc1ccc(C2CC(NCc3ccccc3)c3ccccc32)cc1Cl (stereo not shown) [Lu 19-072-c] | – | > 99 | > 99
37 | OCCNC1CC(c2ccc(Cl)c(Cl)c2)c2ccccc21 (stereo not shown) [Lu 19-073-c] | – | > 111 | > 111
38 | Clc1ccc(C2CC(NCCc3ccccc3)c3ccccc32)cc1Cl (stereo not shown) [Lu 19-079-o] | – | > 85 | > 85
39 | CNC1CC(c2ccc(F)c(Cl)c2)c2ccccc21 (stereo not shown) [Lu 19-086-c] | – | 32 | 30
40 | CNC1CC(c2ccc(F)cc2)c2ccc(C)cc21 (stereo not shown) [Lu 19-091-c] | – | > 137 | 55
41 | CN(C)C1CC(c2ccc(F)c(F)c2)c2ccccc21 (stereo not shown) [Lu 19-096-c] | – | 13 | 42
42 | CN(C)C1CC(O)(c2ccc(F)c(Cl)c2)c2ccccc21 (stereo not shown) [Lu 19-114, N,N-dimethyl-3-(3-chloro-4-fluorophenyl)-3-hydroxy-1-indanamine] | – | 14 | 26
43 | COc1ccc2c(c1)C(N(C)C)CC2c1ccc(Cl)c(Cl)c1 (stereo not shown) [Lu 20-050] | – | 119 | 26
44 | CN1Cc2c(N)cccc2C(c2ccccc2)C1 (stereo not shown) [Nomi-phensine, nomiphensine, reference compound] | – | 4.3 | > 56
